Results reported in ChEMBL document CHEMBL1150460, “Synthesis and 5-HT3 receptor antagonist potency of novel (endo) 3,9-diazabicyclo[3.3.1]nonan-7-amino derivatives” (Bioorg Med Chem Lett, 1994).
pKi: −log10 of the molar value.

Tests used:
[1] = target: T1, Serotonin 3 (5-HT3) receptor (Rattus norvegicus, UniProt P35563+Q9JJ16); test: Displacement of [3H]granisetron from 5-hydroxytryptamine 3 receptor of rat cortex
T1 sequence (P35563 whole entry): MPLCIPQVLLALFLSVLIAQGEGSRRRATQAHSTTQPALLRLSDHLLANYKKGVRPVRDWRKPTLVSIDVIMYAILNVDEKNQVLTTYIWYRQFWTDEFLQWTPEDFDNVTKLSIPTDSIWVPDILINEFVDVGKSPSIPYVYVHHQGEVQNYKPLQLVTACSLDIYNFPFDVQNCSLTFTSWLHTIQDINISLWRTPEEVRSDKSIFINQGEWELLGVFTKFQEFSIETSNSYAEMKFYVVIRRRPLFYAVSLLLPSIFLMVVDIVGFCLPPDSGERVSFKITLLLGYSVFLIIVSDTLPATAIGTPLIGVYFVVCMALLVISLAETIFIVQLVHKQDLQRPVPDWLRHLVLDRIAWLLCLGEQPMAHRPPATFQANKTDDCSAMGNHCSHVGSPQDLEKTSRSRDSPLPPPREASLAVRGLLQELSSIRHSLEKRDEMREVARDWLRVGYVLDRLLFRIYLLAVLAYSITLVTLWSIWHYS
T1 sequence (Q9JJ16 whole entry): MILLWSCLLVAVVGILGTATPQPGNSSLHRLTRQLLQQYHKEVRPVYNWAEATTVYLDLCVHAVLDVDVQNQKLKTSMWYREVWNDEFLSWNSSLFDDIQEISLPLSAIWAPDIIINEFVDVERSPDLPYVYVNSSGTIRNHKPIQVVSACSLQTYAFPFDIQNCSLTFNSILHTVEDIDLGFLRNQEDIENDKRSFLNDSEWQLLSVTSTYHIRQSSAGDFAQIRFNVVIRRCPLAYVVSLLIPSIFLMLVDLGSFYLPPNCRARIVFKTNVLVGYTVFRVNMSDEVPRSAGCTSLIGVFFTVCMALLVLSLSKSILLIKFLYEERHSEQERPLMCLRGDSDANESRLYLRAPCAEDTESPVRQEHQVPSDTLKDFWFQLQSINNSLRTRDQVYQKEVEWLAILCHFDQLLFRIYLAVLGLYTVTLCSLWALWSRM

[2] = target: Serotonin 3 (5-HT3) receptor (Rattus norvegicus) (UniProt P35563+Q9JJ16); test: Inhibition of the von Bezold-Jarisch reflex bradycardia induced by an iv bolus injection of 5-HT; assay type: functional, organism-based

Row | Compound | pKi [1] | Inhibitory dose [2] | Inhibition [2]
1 | CCCCN1CC2CC(NC(=O)c3nn(C)c4ccccc34)CC(C1)N2C (stereo not drawn) | 8.60 |  | 
2 | CN1C2CC(NC(=O)c3nn(C)c4ccccc34)CC1CN(Cc1ccccc1)C2 (stereo not drawn) | 9.30 | 0.16 µg/kg | 
3 | CCCCN1CC2CC(NC(=O)N3CC(C)(C)c4ccccc43)CC(C1)N2C (stereo not drawn) | 7.70 |  | 
4 | CC(C)N1CC2CC(NC(=O)N3CC(C)(C)c4ccccc43)CC(C1)N2C (stereo not drawn) | 8.90 | 0.43 µg/kg | 
5 | COc1cc(N)c(Cl)cc1C(=O)NC1CC2CN(Cc3ccccc3)CC(C1)N2C (stereo not drawn) |  | 0.5 µg/kg | 
6 | CC(=O)N1CC2CC(NC(=O)N3CC(C)(C)c4ccccc43)CC(C1)N2C (stereo not drawn) | 8.40 |  | 
7 | CCN1CC2CC(NC(=O)c3nn(C)c4ccccc34)CC(C1)N2C (stereo not drawn) | 8.80 | 0.8 µg/kg | 
8 | CN1C2CC(NC(=O)N3CC(C)(C)c4ccccc43)CC1CN(Cc1ccccc1)C2 (stereo not drawn) |  | 1.8 µg/kg | 
9 | CN1C2CCCC1CC(NC(=O)c1nn(C)c3ccccc13)C2 (stereo not drawn) |  | 0.7 µg/kg | 
10 | CC(C)N1CC2CC(NC(=O)c3nn(C)c4ccccc34)CC(C1)N2C (stereo not drawn) | 9.10 |  | 0.65 µg/kg
11 | CN1CC2CC(NC(=O)N3CC(C)(C)c4ccccc43)CC(C1)N2C (stereo not drawn) | 9.00 |  | 
12 | CC(C)CN1CC2CC(NC(=O)c3nn(C)c4ccccc34)CC(C1)N2C (stereo not drawn) | 8.50 |  | 
13 | CCCN1CC2CC(NC(=O)c3nn(C)c4ccccc34)CC(C1)N2C (stereo not drawn) | 8.50 |  | 
14 | CN1C2CC(NC(=O)N3CC(C)(C)c4ccccc43)CC1CN(C(=O)c1ccccc1)C2 (stereo not drawn) | 8.00 |  | 
15 | COc1cc(N)c(Cl)cc1C(=O)NC1CC2CN(C)CC(C1)N2C (stereo not drawn) |  | 2.5 µg/kg | 
16 | CN1C2CC(NC(=O)c3nn(C)c4ccccc34)CC1CN(c1ccccc1)C2 (stereo not drawn) |  | 3 µg/kg | 
17 | CCN1CC2CC(NC(=O)N3CC(C)(C)c4ccccc43)CC(C1)N2C (stereo not drawn) | 8.60 | 0.6 µg/kg | 
18 | CN1C2CNCC1CC(NC(=O)N1CC(C)(C)c3ccccc31)C2 (stereo not drawn) | 9.00 |  | 
